Results published in patent US10077436B2, “Beta-glucosidase enzymes for increased biomass saccharification” (Edeniq, Inc., priority 2013, dated 2018).

What was measured:
[1] = biological target: T1, Aspergillus niger beta-glucosidase (CAB75696.1, SEQ ID NO:2) improved variant yEdQ885-BG (Aspergillus niger, UniProt Q9P8F4, Y363C/Y375F/Y610F); test: BG kinetics, pNPG hydrolysis assay with glucose as competitive inhibitor, yEdQ885-BG; assay type: biochemical
T1 construct: strain yEdQ885, BG acid/base mutant #8
T1 sequence (Q9P8F4 20-860 Y363C/Y375F/Y610F): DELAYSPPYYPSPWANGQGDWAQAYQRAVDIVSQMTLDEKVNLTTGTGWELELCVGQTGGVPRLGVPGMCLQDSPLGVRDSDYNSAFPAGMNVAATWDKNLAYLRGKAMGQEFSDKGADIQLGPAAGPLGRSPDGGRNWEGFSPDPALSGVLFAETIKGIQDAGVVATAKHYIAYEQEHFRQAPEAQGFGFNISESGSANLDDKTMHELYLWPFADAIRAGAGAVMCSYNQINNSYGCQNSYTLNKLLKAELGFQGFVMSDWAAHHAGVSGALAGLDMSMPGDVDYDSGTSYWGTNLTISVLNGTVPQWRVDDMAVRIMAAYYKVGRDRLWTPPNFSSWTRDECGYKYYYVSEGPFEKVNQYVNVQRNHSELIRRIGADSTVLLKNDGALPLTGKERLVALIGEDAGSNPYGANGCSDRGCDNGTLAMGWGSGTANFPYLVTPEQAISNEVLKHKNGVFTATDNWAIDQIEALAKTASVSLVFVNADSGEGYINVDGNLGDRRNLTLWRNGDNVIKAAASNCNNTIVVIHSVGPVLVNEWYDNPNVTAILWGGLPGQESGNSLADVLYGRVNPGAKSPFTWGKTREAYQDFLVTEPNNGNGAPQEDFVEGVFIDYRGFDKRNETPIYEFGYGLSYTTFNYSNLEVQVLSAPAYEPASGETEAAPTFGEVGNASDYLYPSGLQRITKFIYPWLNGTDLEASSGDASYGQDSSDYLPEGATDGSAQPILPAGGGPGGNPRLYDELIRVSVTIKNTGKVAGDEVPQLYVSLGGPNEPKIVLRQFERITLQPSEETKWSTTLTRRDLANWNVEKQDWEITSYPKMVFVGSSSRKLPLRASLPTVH
From the text: The beta-glucosidase (BG) gene from Aspergillus niger (Accession #CAB75696.1) was integrated into the TR3 yeast background at the T4U3 genomic site.
High resolution enzyme assays and kinetic testing comparing the beta-glucosidases described herein and commercial enzyme preparations were pursued to more clearly quantify differences in mutant BG enzymes compared to the wild type BG enzyme. Based on data presented herein, BG mutant YEdQ885 was selected for further analysis and compared to the BG activity present in commercial preparations of SP188 (Novozymes) and Accellerase® BG (DuPont) as well as wild type BG. […]
BG activity assay using pNPG is one of the two commonly used standard assays to measure BG activity, which utilizes hydrolysis of p-nitrophenyl-β-D-glucopyranoside (pNPG) by BG into a yellow colored product, p-nitrophenol (pNP), that has a strong absorbance at 405 nm. […] The reaction was then terminated by adding 100 μL of 0.25 M sodium carbonate, and the amount of pNP produced was determined by measuring absorbance at 405 nm using a predetermined calibration curve. […]
To determine the kinetic properties, a competitive inhibition mechanism was hypothesized as proposed in the literature (Chauve et al, 2010; Krogh et al, 2010). […] The turnover number, Kcat, can be calculated by Equation (2), where [Et] is the total amount of enzyme. […]

[2] = system: S-BG (Novozymes SP188 from Sigma), commercial beta-glucosidase; test: BG kinetics, pNPG hydrolysis assay with glucose as competitive inhibitor, S-BG; assay type: biochemical; settings: pH 5.0, 50° C.
From the text: The kinetic properties of beta glucosidase are important for cellulosic hydrolysis, since in commercial situations a wide range of substrate concentrations and different product inhibition conditions will be encountered. In this example, a Michaelis-Menten kinetics model was used to describe BG kinetics. To determine these kinetic properties, BG activity assays using standard substrates pNPG and cellobiose were employed. yEdQ745-BG (wild type) and yEdQ885-BG (improved), were compared with two commercial BGs, A-BG (Accellerase®) BG from Dupont) and S-BG (Novozymes SP188 from Sigma).
BG activity assay using pNPG is one of the two commonly used standard assays to measure BG activity, which utilizes hydrolysis of p-nitrophenyl-β-D-glucopyranoside (pNPG) by BG into a yellow colored product, p-nitrophenol (pNP), that has a strong absorbance at 405 nm. One pNPG unit is defined as the amount of enzyme that produces 1 μmol of pNP per min. Briefly, to determine BG activity, 25 μL of diluted enzyme in 200 mM sodium acetate buffer (pH 5.0) was mixed with 25 μL of the same buffer and 25 μL of RO water (or glucose solution for the kinetic study) and the mixture was preincubated at 50° C. for 5 min. The reaction was initiated by adding 25 μL of 10 mM pNPG in 200 mM sodium acetate buffer (pH 5.0) and the mixture was incubated at 50° C. for 10 min. The reaction was then terminated by adding 100 μL of 0.25 M sodium carbonate, and the amount of pNP produced was determined by measuring absorbance at 405 nm using a predetermined calibration curve.
The range of substrate concentration was chosen to show detectable activity at the lowest concentration and saturation stage at high substrate concentration. The upper limit of inhibitor (glucose) level was chosen to get as close as possible to the real conditions during saccharification (˜4% w/v glucose) and have a detectable residual activity.
To determine the kinetic properties, a competitive inhibition mechanism was hypothesized as proposed in the literature (Chauve et al, 2010; Krogh et al, 2010). The Michaelis-Menten equation with the competitive inhibition term can be expressed in Equation (1), where [S] is the substrate concentration (mM), [I] is the inhibitor concentration (mM), V is the rate of product formation (mM/min), Vmax is the maximal rate of product formation (mM/min), Km is the Michaelis-Menten constant and Ki is the inhibition constant. The turnover number, Kcat, can be calculated by Equation (2), where [Et] is the total amount of enzyme.
Conventionally, linearization methods can be used to determine the kinetic parameters based on Equation (1). Three common linear plots used are Lineweaver-Burke, Eadie-Hofstee and Hanes plots (Rogers and Gibon, 2009). However, these linearized versions of the Michaelis-Menten equation often produce substantial errors in parameter estimation. […] All of the activity data at different substrate levels and different inhibitor levels were fit simultaneously according to the full nonlinear equation for competitive enzyme inhibition as expressed in Equation (1). Thus, Vmax, Km and Ki can be determined simultaneously from this fitting process, and Km/Ki can then be calculated. Kcat can be obtained by Equation (2) and Kcat/Km can be calculated accordingly.
The above experimental data were fit in the competitive inhibition model as expressed in Equation (1) by simultaneous nonlinear regression. The order of maximum velocity (Vmax) is A-BG>yEdQ885-BG>S-BG≈yEdQ745-BG. […] Nevertheless, the in-house BGs have much higher dissociation constant for inhibitor (Ki), indicating higher tolerance to product inhibition. Consistent with Vmax, the order of turnover number (Kcat) is A-BG>yEdQ885-BG>S-BG≈yEdQ745-BG. With much lower Km and much higher Kcat, A-BG has a considerably higher catalytic efficiency (Kcat/Km) than the other enzymes. The catalytic efficiency of S-BG and yEdQ885-BG is quite close, which is higher than that of yEdQ745-BG. […]

For `OC[C@H]1OC(O)[C@H](O)[C@@H](O)[C@@H]1O` (stereo partly shown) [glucose], the Ki [1] was 2190 ± 100 µM, the Km/Ki ([1]; inhibitor influence, Km for pNPG / Ki for glucose, pH 5.0, 50° C.) was 0.29 and the Km/Ki ([2]; inhibitor influence, Km for pNPG / Ki for glucose) was 0.52. For the same compound, the Ki ([2]; pNPG substrate, competitive inhibition) was 810 ± 110 µM.
